Data: PubChem BioAssay AID179 (DTP/NCI, 2004)
Active and inactive are the calls of the source.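 Rule for the calls: active = compounds giving half or more protection of infected cells from virus-caused growth loss, again on retest; inactive = the rest.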 Where a SMILES comes first, the peptide text is derived from it.

System: CEM cells HIV-1 protection, formazan growth assay
Assay: NCI AIDS Antiviral Assay
Conditions: for IC50: measured here: growth of uninfected CEM cells
Summary of the method: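 Five concentrations of each compound were applied to infected and uninfected human CEM cells. Protection from HIV-1 was judged from growth measured with a soluble formazan assay.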

| Compound | EC50 [µM] | IC50 [µM] | outcome |
| --- | --- | --- | --- |
| CC1=C(C(=O)Nc2ccc([N+](=O)[O-])cc2)C(c2ccc3c(c2)OCO3)C(C(=O)Nc2ccc([N+](=O)[O-])cc2)=C(C)N1 | > 6.76 | > 6.76 | – |
| O=C(CC(C(=O)c1cccs1)c1ccccc1)c1ccccc1O (centres undefined) | > 200 | 115 | – |
| CCC(C)C(NC(=O)CNC(=O)C(Cc1cnc[nH]1)NC(=O)C(NC(=O)C(CS)NC(=O)C(CCC(N)=O)NC(=O)C(NC(=O)C(NC(=O)C(CO)NC(=O)C(NC(=O)C(CC(N)=O)NC(=O)C(NC(=O)C(CS)NC(=O)C1CCCN1C(=O)CNC(=O)C(NC(=O)CN)C(C)O)C(C)O)C(C)C)C(C)O)C(C)C)C(C)O)C(=O)NC(CCCN=C(N)N)C(N)=O (centres undefined) (H-GTGPCTNVSTVQCTHGIR-NH2; configuration not given here) | > 50.1 | > 50.1 | – |
| COc1cccc(/C=N/NC(=O)CN(C)C)c1O | > 200 | 51.3 | – |
| CC1(C)C(=O)CCC(=O)C(C)(C)C2=CC=C(O2)C(C)(C)C(=O)CCC(=O)C(C)(C)C2=CC=C1O2 | – | – | inactive |
| CC(O)C1=CCC2c3[nH]c4ccccc4c3CCN2C1 (centres undefined) | > 23.4 | > 23.4 | – |
| NC(=O)C(=CNC(=S)NCc1ccccc1)C(N)=O | > 200 | > 200 | – |
| CN1c2ccccc2SC2C(c3ccccc3)=NOC21 (centres undefined) | > 200 | 45.7 | – |
| COC(=O)[C@H]1[C@H]2C[C@@H]3c4[nH]c5cccc(OC)c5c4CCN3C[C@H]2CC[C@H]1O | > 200 | > 200 | – |
| Cc1ccc(S(=O)(=O)N2CCSCCSCCSCCN(S(=O)(=O)c3ccc(C)cc3)CC2)cc1 | > 12.6 | > 12.6 | – |
| CCC(OCc1ccccc1)/C(C)=C/CC(C)C=C(Br)Br (centres undefined) | > 933 | 891 | – |
| COC(=O)C1=C(C(=O)OC)C2(C3=C(C)C(=O)c4ccccc43)CCC1(C)O2 (centres undefined) | > 97.7 | 52.5 | – |
| Cc1nc2nnc(C)n2c2c1C(=O)Nc1ccccc1N2 | > 200 | > 200 | – |
| CN(C(=O)C12C3C4C1C1C4(C#N)C3C12C(=O)O)C(C)(C)C (centres undefined) | > 158 | > 158 | – |
| CC1(C)C(=O)C2(N)CCC1C2 (centres undefined) | > 200 | > 200 | – |
| c1cnc2c(c1)Nc1cnncc1S2 | > 200 | > 200 | – |
| N#CC(C#N)=Cc1cccc(C#N)c1 | > 141 | 2.45 | – |
| C/C(=C/c1cc(=O)n(C)c2ccccc12)[N+](=O)[O-] | > 200 | 0.832 | – |
| Cc1ccc(S(=O)(=O)OI(C#CC(C)(C)C)c2ccccc2)cc1 | > 200 | 1.05 | – |
| O=C(c1ccc(Cl)cc1)N(C(=O)N1CCC(c2ccccc2)CC1)c1ccccc1 | > 200 | 11.2 | – |
| O=c1c2ccc(Cl)cc2nc2nc(-c3ccccc3)c3cc(Cl)ccc3n12 | > 200 | > 100 | – |

| Compound | EC50 [µM] | IC50 [µM] | outcome |
| --- | --- | --- | --- |
| O=C(O)CSc1n[nH]c(=S)c2nc[nH]c12 | > 537 | > 537 | – |
| CCCCCCCCCCCCCCCCP(=O)(O)OP(=O)(O)OCC1OC(n2cnc3c(N)ncnc32)C(O)C1O (centres undefined) | > 100 | 19.5 | – |
| CC(C)(C)Sc1nnc(SC(C)(C)C)c2c(=O)[nH]nc(SC(C)(C)C)c12 | – | – | inactive |
| Cc1cc(S(=O)(=O)NC2=NCc3nc4ccccc4n32)c(S)cc1Cl | > 200 | 35.5 | – |
| CCOC(=O)c1sc2c(c1OC(=O)c1cccs1)c(=O)n(-c1ccccc1)c(=S)n2-c1ccccc1 | > 200 | 6.92 | – |
| Oc1ccccc1C1SCc2nc3ccccc3n21 (centres undefined) | > 26.9 | > 26.9 | – |
| CNS(=O)(=O)NN(C)S(=O)(=O)c1ccccc1 | > 891 | 148 | – |
| CC(=O)N1N=C(c2c(O)ccc3ccccc23)CC1C(=O)c1ccco1 (centres undefined) | > 200 | 35.5 | – |
| Nc1c(S(=O)(=O)O)cc2cc(S(=O)(=O)O)ccc2c1N=Nc1ccc(-c2ccc(N=Nc3c(N)c(S(=O)(=O)O)cc4cc(S(=O)(=O)O)ccc34)c(S(=O)(=O)O)c2)cc1 | – | – | active |
| CN(/N=C/c1ccc(Cl)c(Cl)c1)C1=NCCN1 | > 200 | 16.2 | – |
| O=c1[nH]c2nncn2c2ccccc12 | > 200 | > 200 | – |
| NC(=O)c1cccc(OCC(O)CO)c1 (centres undefined) | > 200 | > 200 | – |
| [O-][n+]1c2ccccc2cc2c1c1ccccc1n2O | > 20.9 | > 20.9 | – |
| CC(=O)Nc1ccc(S(=O)(=O)[N-]C2C(=O)c3ccccc3C(=O)C2[n+]2ccccc2)cc1 (centres undefined) | > 200 | 37.2 | – |
| CC1=NN(c2ccccc2)C(=O)/C1=C1\SC(c2ccccc2)(c2ccccc2)c2ccccc21 | > 200 | > 200 | – |
| FC(F)(F)c1ccc2c(c1)N(CCCN1CCN(C3CC3)CC1)c1ccccc1S2 | > 200 | 33.1 | – |
| Cc1c(C(=O)CC(=O)C(=O)Nc2cccc(C(F)(F)F)c2)[n+](=O)c2ccccc2n1[O-] | > 40.7 | 3.55 | – |
| Cc1ccc2c(c1C)CC1(Cc3ccc(C)c(C)c3C1=O)C2=O (centres undefined) | > 100 | > 100 | – |
| O=[N+]([O-])c1ccc(O)c(/C=N\NC(=S)Nc2ccc(F)cc2)c1 | > 77.6 | > 77.6 | – |
| c1ccc(N=c2nc(N3CCOCC3)ss2)cc1 | – | – | inactive |
| Cc1cn(COCCS(=O)c2ccccc2)c(=O)[nH]c1=O (centres undefined) | > 200 | > 200 | – |

| Compound | EC50 [µM] | IC50 [µM] | outcome |
| --- | --- | --- | --- |
| c1ccc(C2=Nc3ccccc3N=C3CCCC32)cc1 (centres undefined) | > 200 | > 200 | – |
| NCCCN=c1ccc2c3c1c(O)c1c(O)ccc(=O)c1c3[nH]n2CCNCCO | > 525 | 1.07 | – |
| CNC(=O)c1cn(C2OC(CO)C(O)C2O)c2ncnc(N)c12 (centres undefined) | > 2 | 1.2 | – |
| CC1(CO)NC(C(=O)O)Cc2c1[nH]c1ccccc21 (centres undefined) | > 200 | > 200 | – |
| CCc1cccc(NC(=O)c2cc(/C=C/c3ccccc3)[nH]c(=S)n2)c1 | > 347 | > 347 | – |
| N#C/C(=C\c1cccc(Br)c1)C(=O)c1ccccc1 | > 115 | 50.1 | – |
| CC1=C(C#N)c2nc3ccccc3n2C(=O)C1(C)CCO (centres undefined) | > 200 | > 200 | – |
| COc1ccc(-c2cncc(-c3ccc(OC)c(OC)c3)c2)cc1OC | > 20.4 | > 20.4 | – |
| NC(CCCCNCc1ccccc1O)C(=O)O (centres undefined) | > 178 | > 178 | – |
| CN(C)CC(/C(Cc1ccccc1)=N\NC(=O)c1ccncc1)c1ccccc1 (centres undefined) | > 245 | 93.3 | – |
| CC(=O)Nc1ccc2c(c1)Cc1cc(N(CCO)CCO)ccc1-2 | > 200 | 74.1 | – |
| Sc1ccccc1N=Cc1cccs1 | > 200 | 93.3 | – |
| CCC12CCCN(CCBr)C1c1c(n(C)c3ccccc13)C(C(=O)OC)C2 (centres undefined) | > 27.5 | 13.5 | – |
| O=C1OC2(c3ccccc3Oc3ccccc32)c2ccccc21 | – | – | inactive |
| CC1=C2C(=O)NN=C2CCN1c1ccc(Br)cc1 | > 200 | 34.7 | – |
| Cc1cc(Cl)cc2c1NC(=O)C2(O)C(C)C(=O)c1ccc(Cl)cc1 (centres undefined) | > 186 | 123 | – |
| CSc1nc2nc(C)c(C)nc2c(=O)[nH]1 | > 1120 | > 1120 | – |
| COc1ccc(NC(=O)CC(=O)N/N=C(\C)c2cc3ccccc3oc2=O)cc1 | > 200 | 102 | – |
| N=C(N)N | > 1000 | > 1000 | – |
| COc1cc(/C=C2\CCC/C(=C\c3cc(OC)c(O)c(OC)c3)C2=O)cc(OC)c1O | > 200 | 0.933 | – |
